We go through one compound from patent US20170340689A1, “TITRATED EXTRACTS OF CYNARA SCOLYMUS FOR USE IN THE TREATMENT OF MESOTHELIOMA” (ABOCA S.P.A SOCIETÀ AGRICOLA, priority 2014, published 2017).

This series relates to untransformed HMC cells. The series is described as follows: ATPlite cell vitality assay in co-treatment with pemetrexed, untransformed cells. Type of series: cell-based, human. The following applies: extract at non-cytotoxic dose 6 μg/ml. An excerpt: 4.1 Association of Extract of Cynara Spp. and Pemetrexed with ATPlite™ Assay

As to `Nc1nc2[nH]cc(CCc3ccc(C(=O)N[C@@H](CCC(=O)O)C(=O)O)cc3)c2c(=O)[nH]1` [PMTX, pemetrexed], the “cell vitality of untransformed HMC cells, pemetrexed alone or with extract” value is reported as “highly toxic for the non-tumour cells”.
